Test results published in ChEMBL document CHEMBL1143426, “In vivo efficacy of ceftaroline (PPI-0903), a new broad-spectrum cephalosporin, compared with linezolid and vancomycin against methicillin-resistant and vancomycin-intermediate Staphylococcus aureus in a rabbit endocarditis model” (Antimicrob Agents Chemother, 2007).
Values after ≈ are worked out from the molar mass of the structure shown. Active and inactive are the calls of the source. The calls are words filed in the database; no cut-off is given here.

Key:
Staphylococcus aureus [1] = experiment: Bactericidal activity against methicillin-resistant Staphylococcus aureus SA2 by microdilution technique; format: functional
Staphylococcus aureus [2] = experiment: Bactericidal activity against vancomycin-intermediate Staphylococcus aureus by microdilution technique; format: functional
[3] = Cmax in rabbit plasma at 58 mg/kg infused every 12 hrs for 4 days; format: ADME, organism-based, Oryctolagus cuniculus; set-up: dose 58 mg/kg; settings: iv
[4] = AUC in rabbit plasma at 58 mg/kg infused every 12 hrs for 4 days; format: ADME, organism-based, Oryctolagus cuniculus; set-up: dose 58 mg/kg; settings: iv
[5] = Half life in rabbit plasma at 58 mg/kg infused every 12 hrs for 4 days; format: ADME, organism-based, Oryctolagus cuniculus; set-up: dose 58 mg/kg; settings: iv
Staphylococcus aureus [6] = experiment: Bactericidal activity against methicillin-resistant Staphylococcus aureus SA2 in rabbit endocarditis model assessed per gram of aortic vegetation at 58 mg/kg infused every 12 hrs for 4 days measured after 48 hrs; format: functional, Aorta
Staphylococcus aureus [7] = experiment: Bactericidal activity against vancomycin-intermediate Staphylococcus aureus in rabbit endocarditis model assessed per gram of aortic vegetation at 58 mg/kg infused every 12 hrs for 4 days measured after 48 hrs; format: functional, Aorta
Staphylococcus aureus [8] = experiment: Bactericidal activity against methicillin-resistant Staphylococcus aureus SA2 in rabbit endocarditis model assessed as growth inhibition at 58 mg/kg infused every 12 hrs for 4 days measured after 48 hrs; format: functional; settings: read-out: GI
Staphylococcus aureus [9] = experiment: Bactericidal activity against vancomycin-intermediate Staphylococcus aureus in rabbit endocarditis model assessed as growth inhibition at 58 mg/kg infused every 12 hrs for 4 days measured after 48 hrs; format: functional; settings: read-out: GI
Oryctolagus cuniculus = experiment: Plasma concentration in rabbit at 58 mg/kg infused every 12 hrs for 4 days; format: ADME, organism-based; set-up: dose 58 mg/kg; settings: in vivo, iv
Citrobacter freundii = experiment: Antibacterial activity against Citrobacter freundii; format: functional, organism-based
Staphylococcus aureus [10] = experiment: Bactericidal activity against methicillin-resistant Staphylococcus aureus SA2 in rabbit endocarditis model at 4 times MIC after 48 hrs; format: functional, organism-based
Staphylococcus aureus [11] = experiment: Bactericidal activity against vancomycin-intermediate Staphylococcus aureus in rabbit endocarditis model at 4 times MIC after 48 hrs; format: functional, organism-based
Staphylococcus aureus [12] = experiment: %T>MIC in methicillin-resistant Staphylococcus aureus in mouse thigh/lung infection model; format: ADME, organism-based; settings: in vivo
[13] = Protein binding in human plasma; format: ADME, cell-free; settings: read-out: PPB
[14] = Protein binding in rabbit plasma; format: ADME, cell-free, Oryctolagus cuniculus; settings: read-out: PPB
Escherichia coli = experiment: Antibacterial activity against Escherichia coli; format: functional, organism-based
Klebsiella pneumoniae = experiment: Antibacterial activity against Klebsiella pneumoniae; format: functional, organism-based
Morganella morganii = experiment: Antibacterial activity against Morganella morganii; format: functional, organism-based
Haemophilus influenzae = experiment: Antibacterial activity against Haemophilus influenzae; format: functional, organism-based
Moraxella catarrhalis = experiment: Antibacterial activity against Moraxella catarrhalis; format: functional, organism-based
Neisseria meningitidis = experiment: Antibacterial activity against Neisseria meningitidis; format: functional, organism-based
Pseudomonas aeruginosa = experiment: Antibacterial activity against Pseudomonas aeruginosa; format: functional
Staphylococcus aureus [15] = experiment: %T>MIC in vancomycin-intermediate Staphylococcus aureus in rabbit endocarditis model; settings: in vivo
Staphylococcus aureus [16] = experiment: %T>MIC in methicillin-resistant Staphylococcus aureus SA2 in rabbit endocarditis model; settings: in vivo

| SMILES | MIC (Staphylococcus aureus [1]) | MIC (Staphylococcus aureus [2]) | MBC (Staphylococcus aureus [1]) | MBC (Staphylococcus aureus [2]) | log10cfu (Staphylococcus aureus [6]) | log10cfu (Staphylococcus aureus [7]) | inhibition in vivo at 58 mg/kg (Staphylococcus aureus [8]) | inhibition in vivo at 58 mg/kg (Staphylococcus aureus [9]) | other results |
| --- | --- | --- | --- | --- | --- | --- | --- | --- | --- |
| COc1cccc(OC)c1C(=O)N[C@@H]1C(=O)N2[C@@H]1SC(C)(C)[C@@H]2C(=O)O [METHICILLIN] | 128 µg/mL (≈ 336 µM) | > 1020 µg/mL | – | – | – | – | – | – | – |
| CC(=O)NC[C@H]1CN(c2ccc(N3CCOCC3)c(F)c2)C(=O)O1 [LINEZOLID] | – | 1 µg/mL (≈ 2.96 µM) | > 64 µg/mL | 16 µg/mL (≈ 47.4 µM) | 7.1 | 6.9 | 0% | 0% | Cmax [3]: 19600 ng/mL; AUC [4]: 137 µg·h/mL; half-life [5]: 3.3 h |
| CN[C@H](CC(C)C)C(=O)N[C@H]1C(=O)N[C@@H](CC(N)=O)C(=O)N[C@H]2C(=O)N[C@H]3C(=O)N[C@H](C(=O)N[C@H](C(=O)O)c4cc(O)cc(O)c4-c4cc3ccc4O)[C@H](O)c3ccc(c(Cl)c3)Oc3cc2cc(c3O[C@@H]2O[C@H](CO)[C@@H](O)[C@H](O)[C@H]2O[C@H]2C[C@](C)(N)[C@H](O)[C@H](C)O2)Oc2ccc(cc2Cl)[C@H]1O [VANCOMYCIN] | – | – | 2 µg/mL (≈ 1.38 µM) | 8 µg/mL (≈ 5.52 µM) | 2.7 | 6.7 | 67% | 0% | Cp (Oryctolagus cuniculus): 23100 ng/mL |
| CCO/N=C(\C(=O)N[C@@H]1C(=O)N2C(C(=O)[O-])=C(Sc3nc(-c4cc[n+](C)cc4)cs3)CS[C@H]12)c1nsc(NP(=O)(O)O)n1 [CEFTAROLINE FOSAMIL] | 1 µg/mL (≈ 1.46 µM) | 2 µg/mL (≈ 2.92 µM) | 1 µg/mL (≈ 1.46 µM) | 2 µg/mL (≈ 2.92 µM) | 2.5 | 3 | 90% | 60% | Activity (Citrobacter freundii): Active; Activity (Staphylococcus aureus [10]): Active; Activity (Staphylococcus aureus [11]): Active; T>MIC (Staphylococcus aureus [12]): 33%; fraction unbound [13]: > 0.8; fraction unbound [14]: > 0.8; Activity (Escherichia coli): Active; Activity (Klebsiella pneumoniae): Active; Activity (Morganella morganii): Active; Activity (Haemophilus influenzae): Active; Activity (Moraxella catarrhalis): Active; Activity (Neisseria meningitidis): Active; MIC90 (Pseudomonas aeruginosa): > 32 µg/mL; T>MIC (Staphylococcus aureus [15]): 62%; T>MIC (Staphylococcus aureus [16]): 75% |
